Numbered stars: 1 amine (or outer) side, 2 acyl side, 3 side chain; on linkers, the order of the positions; unused ones are H or OH. Bridge positions count the residues as written; N and C are the ends. Square brackets hold non-standard residues; d marks the D form. Peptide text beside a SMILES is read from it. * marks the point of attachment. X1 = CN1C[C@H](CSCCN(CCSC[C@@H]2C[C@@H]3c4cccc5[nH]cc(c45)C[C@H]3N(C)C2)[C@H](CCCCN[*:2])C(=O)[*:1])C[C@@H]2c3cccc4[nH]cc(c34)C[C@H]21; X2 = CN1C[C@H](CSCC(=O)*)C[C@@H]2c3cccc4[nH]cc(c34)C[C@H]21; Phe(4-F) = N[C@@H](Cc1ccc(F)cc1)C(=O)O
Tests used:
hDRD2 [1] = molecular target: T1, hDRD2 (Homo sapiens, UniProt P14416); assay: biochemical; type: binding; parameters: expressed in transfected cells; host or cells: CHO-K1, pcDNA3.1/GS, zeocin-selected clonal line; membranes
hDRD2 [2] = molecular target: T1, hDRD2; assay: cell-based; parameters: host or cells: 'Cells expressing hDRD2'; conditions: for Emax: read-out: hDRD2 %Emax ± SEM
Description: (§1) The ability of select compounds according to the present invention to activate hSSTR2 and hDRD2 was determined by the intracellular calcium mobilization assay using FLIPR Calcium 4 assay kit (Molecular Devices).
(§2) Cells expressing hSSTR2 or hDRD2 were plated in 384-well microplates in tissue culture media and incubated for 16-24 hours at 37°C in a humidified atmosphere with 5% CO2. Medium was replaced by loading buffer containing Hank's buffered saline, 20 mM HEPES, 2.5 mM probenecid and Calcium 4 dye, and the plates were incubated at 37°C for 60 minutes.

hSSTR2 [3] = molecular target: T2, hSSTR2 (Homo sapiens, UniProt P30874); assay: Intracellular calcium mobilization assay (FLIPR Calcium 4), hSSTR2; type: cell-based;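 also: agonist activity measured in cells expressing hSSTR2, seeded in 384-well plates, loaded with Calcium 4 dye, read-out as rise in intracellular calcium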
T2 construct: host or cells: 'Cells expressing hSSTR2'
Description: as §1, §2

hSSTR2 [4] = molecular target: T2, hSSTR2; assay: Somatostatin receptor radioligand binding assay (hSSTR2);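 also: radioligand displacement on membranes of CHO-K1 cells stably transfected with human SSTR2, specific binding taken as total minus binding left with 1000 nM SRIF-14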
hSSTR1 = molecular target: T3, hSSTR1 (Homo sapiens, UniProt P30872); assay: Somatostatin receptor radioligand binding assay (hSSTR1)
T3 construct: expressed in transfected cells; host or cells: CHO-K1 (ATCC), pcDNA3.1, G418-selected clonal line; membranes
Description: The affinities of a test compound for the human somatostatin receptors were determined by radioligand binding assays in CHO-K1 cells stably transfected with each of the human somatostatin receptor subtypes, hSSTR1-5. […] Clonal cell lines stably expressing each of the somatostatin receptors were obtained by transfection into CHO-K1 cells (ATCC) and subsequently selected with culture media containing 0.8 mg/mL of G418 (Life Technologies).
Membranes for in vitro receptor binding assays were obtained by the following procedures. […] The supernatant containing the plasma membranes was centrifuged at 100,000 x g for 30 minutes and the pellet was resuspended in buffer containing 20 mM glycine-glycine, 1 mM MgCl2, 250 mM sucrose, pH 7.2, for storage at -80°C.
For the SSTR1, 2 and 5 assays, membranes and various concentrations of test compounds were incubated in 96-well plates for 60 minutes at 25°C with 0.05 nM [^125I-Tyr^11]-SRIF-14 (for hSSTR1; PerkinElmer Life Science), 0.05 nM [^125I-Tyr]-seglitide (for hSSTR2; PerkinElmer Life Science) or 0.05 nM [^125I-Tyr]-[DPhe-cyclo(Cys-Tyr-DTrp-Lys-Val-Cys)-Thr-NH2] (for hSSTR5; PerkinElmer Life Science) in 50 mM HEPES, 0.2% BSA, 0.1 mM MgCl2, pH 7.5.
The incubations were terminated by rapid filtration through GF/C glass microfiber filter plates (pre-wet with 0.3% polyethyleneimine and 0.1 % BSA) using a 96-well cell harvester (Brandel). Plates were washed six times with 1 mL/well aliquots of ice-cold buffer containing 50 mM Tris buffer, pH 7.7. Specific binding was defined as the total radioligand bound minus the bound in the presence of 1000 nM SRIF-14.
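For Emax in this document: agonist activity at human DRD2 in DRD2-expressing cells, read as intracellular calcium mobilization with a FLIPR Calcium 4 fluorescent dye.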

T1 sequence (P14416 whole entry): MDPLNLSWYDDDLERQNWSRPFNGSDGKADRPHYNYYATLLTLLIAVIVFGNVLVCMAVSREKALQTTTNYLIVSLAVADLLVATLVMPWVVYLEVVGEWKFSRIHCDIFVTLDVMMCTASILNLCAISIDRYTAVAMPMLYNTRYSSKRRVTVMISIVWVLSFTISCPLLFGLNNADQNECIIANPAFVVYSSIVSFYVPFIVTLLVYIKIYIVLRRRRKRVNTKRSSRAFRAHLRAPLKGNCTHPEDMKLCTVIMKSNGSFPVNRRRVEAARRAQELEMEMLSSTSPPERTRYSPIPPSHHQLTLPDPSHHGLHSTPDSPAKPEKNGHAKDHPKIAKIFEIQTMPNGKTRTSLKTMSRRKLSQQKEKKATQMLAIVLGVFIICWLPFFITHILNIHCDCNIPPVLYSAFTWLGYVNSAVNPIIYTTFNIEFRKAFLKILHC
T2 sequence (P30874 whole entry): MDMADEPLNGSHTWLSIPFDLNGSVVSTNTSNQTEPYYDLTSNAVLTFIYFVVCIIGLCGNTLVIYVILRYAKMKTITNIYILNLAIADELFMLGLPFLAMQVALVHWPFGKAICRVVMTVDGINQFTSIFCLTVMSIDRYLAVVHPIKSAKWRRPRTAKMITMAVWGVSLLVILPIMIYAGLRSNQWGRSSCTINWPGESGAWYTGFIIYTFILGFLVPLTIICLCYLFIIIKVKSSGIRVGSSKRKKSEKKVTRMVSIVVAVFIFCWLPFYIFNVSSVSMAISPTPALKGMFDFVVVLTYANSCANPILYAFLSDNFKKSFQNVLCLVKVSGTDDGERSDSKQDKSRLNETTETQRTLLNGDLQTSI
T3 sequence (P30872 whole entry): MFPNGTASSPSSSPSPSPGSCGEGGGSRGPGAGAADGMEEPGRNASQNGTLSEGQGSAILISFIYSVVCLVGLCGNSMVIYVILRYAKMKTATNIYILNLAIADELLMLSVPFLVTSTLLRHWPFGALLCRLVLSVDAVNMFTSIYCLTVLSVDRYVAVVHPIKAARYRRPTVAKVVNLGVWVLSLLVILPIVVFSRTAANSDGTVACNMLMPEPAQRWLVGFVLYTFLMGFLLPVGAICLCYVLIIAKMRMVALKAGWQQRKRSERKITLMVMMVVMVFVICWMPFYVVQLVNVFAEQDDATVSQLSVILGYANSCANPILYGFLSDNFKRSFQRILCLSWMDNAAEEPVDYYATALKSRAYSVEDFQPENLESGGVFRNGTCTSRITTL

SMILES | Ki (hDRD2 [1]) [nM] | EC50 (hDRD2 [2]) [nM] | Emax (hDRD2 [2]) [%] | EC50 (hSSTR2 [3]) [nM] | Ki (hSSTR2 [4]) [nM] | improvement in EC50 over Reference Compound A (hSSTR2 [3]; p value (Student's t-test, one-tailed) < 0.05, receptor not named) | Ki (hSSTR1) [nM]
C[C@@H](O)[C@@H]1NC(=O)[C@H](CCCCN)NC(=O)[C@@H](Cc2c[nH]c3ccccc23)NC(=O)[C@H](Cc2ccccc2)NC(=O)[C@H](Cc2ccccc2)NC(=O)[C@H](CCCNC(=N)N)NC(=O)[C@H](NCCSC[C@@H]2C[C@@H]3c4cccc5[nH]cc(c45)C[C@H]3N(C)C2)CCCCNC(=O)[C@H](Cc2c(F)c(F)c(F)c(F)c2F)NC1=O [Compound 6E, Dop1-psi(CH2NH)-cyclo(DLys-Arg-Phe-Phe-DTrp-Lys-Thr-2,3,4,5,6FPhe)] | 40.4 ± 13.2 | 480 ± 125 | 54.1 ± 20.6 | 223 ± 13.7 | 5.48 ± 3.38 | – | –
C[C@@H](O)[C@@H]1NC(=O)[C@H](CCCCN)NC(=O)[C@@H](Cc2c[nH]c3ccccc23)NC(=O)[C@H](Cc2ccncc2)NC(=O)[C@H](Cc2ccccc2)NC(=O)[C@H](CCCNC(=N)N)NC(=O)[C@H](NC[C@H](CCCCNC(=O)C[S+]([O-])C[C@@H]2C[C@@H]3c4cccc5[nH]cc(c45)C[C@H]3N(C)C2)NC(=O)C[S+]([O-])C[C@@H]2C[C@@H]3c4cccc5[nH]cc(c45)C[C@H]3N(C)C2)CCCCNC(=O)[C@H](Cc2ccc(O)cc2)NC1=O (stereo partly drawn) [Compound 16, Dop1(SO)-Lys[Dop1(SO)]-psi(CH2NH)-cyclo(DLys-Arg-Phe-4Pal-DTrp-Lys-Thr-Tyr)] | 22.5 ± 1.9 | 4.7 ± 0.5 | 95.2 ± 1.7 | 6 ± 0.8 | 0.04 ± 0.03 | – | –
C[C@@H](O)[C@@H]1NC(=O)[C@H](CCCCN)NC(=O)[C@@H](Cc2c[nH]c3ccccc23)NC(=O)[C@H](Cc2ccccc2)NC(=O)[C@H](Cc2ccccc2)NC(=O)[C@H](CCCNC(=N)N)NC(=O)[C@H](NC[C@H](Cc2ccc(O)cc2)NC(=O)CS(=O)(=O)C[C@@H]2C[C@@H]3c4cccc5[nH]cc(c45)C[C@H]3N(C)C2)CCCCNC(=O)[C@H](Cc2ccc(F)cc2)NC1=O [Compound 19, Dop1(SO2)-Tyr-psi(CH2NH)-cyclo(DLys-Arg-Phe-Phe-DTrp-Lys-Thr-4FPhe)] | > 1000 | 701 ± 220 | 90.7 ± 5.7 | 4.3 ± 1.2 | 0.16 ± 0.12 | – | –
C[C@@H](O)[C@@H]1NC(=O)[C@H](CCCCN)NC(=O)[C@@H](Cc2c[nH]c3ccccc23)NC(=O)[C@H](Cc2ccncc2)NC(=O)[C@H](Cc2ccccc2)NC(=O)[C@H](CCCNC(=N)N)NC(=O)[C@H](NC[C@H](Cc2ccc(O)cc2)NC(=O)CS(=O)(=O)C[C@@H]2C[C@@H]3c4cccc5[nH]cc(c45)C[C@H]3N(C)C2)CCCCNC(=O)[C@H](Cc2ccccc2)NC1=O [Compound 21, Dop1(SO2)-Tyr-psi(CH2NH)-cyclo(DLys-Arg-Phe-4Pal-DTrp-Lys-Thr-Phe)] | > 1000 | 208 ± 26.8 | 92.1 ± 0.2 | 0.9 ± 0.1 | 0.02 ± 0.01 | – | –
CC(=O)N(CCCNC[C@@H]1C[C@@H]2c3cccc4[nH]cc(c34)C[C@H]2N(C)C1)[C@@H]1CCCCNC(=O)[C@H](Cc2ccc(F)cc2)NC(=O)[C@H]([C@@H](C)O)NC(=O)[C@H](CCCCN)NC(=O)[C@@H](Cc2c[nH]c3ccccc23)NC(=O)[C@H](Cc2ccccc2)NC(=O)[C@H](Cc2ccccc2)NC(=O)[C@H](CCCNC(=N)N)NC1=O [Compound 22, 3-[N-(D-6-methyl-8β-ergolinylmethyl)]-aminopropionyl-psi(CH2NAc)-cyclo(DLys-Arg-Phe-Phe-DTrp-Lys-Thr-4FPhe)] | 200 ± 65 | 513 ± 129 | 38.7 ± 8.8 | 27.5 ± 6.7 | 0.35 ± 0.18 | – | –
C[C@@H](O)[C@@H]1NC(=O)[C@H](CCCCN)NC(=O)[C@@H](Cc2c[nH]c3ccccc23)NC(=O)[C@H](Cc2ccncc2)NC(=O)[C@H](Cc2ccccc2)NC(=O)[C@H](CCCNC(=N)N)NC(=O)[C@H](NCCSC[C@@H]2C[C@@H]3c4cccc5[nH]cc(c45)C[C@H]3N(C)C2)CCCCNC(=O)[C@H](Cc2ccccc2)NC1=O [Compound 23, Dop1-psi(CH2NH)-cyclo(DLys-Arg-Phe-4Pal-DTrp-Lys-Thr-Phe)] | 328 ± 19.3 | 34.2 ± 13.7 | 96.4 ± 5.3 | 2.4 ± 0.1 | 0.09 | statistically significant improvement in EC50 | –
C[C@@H](O)[C@@H]1NC(=O)[C@H](CCCCN)NC(=O)[C@@H](Cc2c[nH]c3ccccc23)NC(=O)[C@H](Cc2ccccc2)NC(=O)[C@H](Cc2ccccc2)NC(=O)[C@H](CCCNC(=N)N)NC(=O)[C@H](NCCSC[C@@H]2C[C@@H]3c4cccc5[nH]cc(c45)C[C@H]3N(C)C2)CCCCNC(=O)[C@H](Cc2ccccc2)NC1=O [Compound 26, Dop1-psi(CH2NH)-cyclo(DLys-Arg-Phe-Phe-DTrp-Lys-Thr-Phe)] | 309 ± 56.6 | 34.1 ± 6.8 | 93.7 ± 7.2 | 9.8 ± 1.4 | 2.23 ± 0.97 | – | 59
CC(=O)N(CCCN(C(C)=O)[C@@H]1CCCCNC(=O)[C@H](Cc2ccc(F)cc2)NC(=O)[C@H]([C@@H](C)O)NC(=O)[C@H](CCCCN)NC(=O)[C@@H](Cc2c[nH]c3ccccc23)NC(=O)[C@H](Cc2ccccc2)NC(=O)[C@H](Cc2ccccc2)NC(=O)[C@H](CCCNC(=N)N)NC1=O)C[C@@H]1C[C@@H]2c3cccc4[nH]cc(c34)C[C@H]2N(C)C1 [Compound 28, 3-[N-acetyl-N-(D-6-methyl-8β-ergolinylmethyl)]-aminopropionyl-psi(CH2NAc)-cyclo(DLys-Arg-Phe-Phe-DTrp-Lys-Thr-4FPhe)] | 39.9 ± 10.4 | 265 ± 104 | 56 ± 9.1 | 11.8 ± 7.6 | 0.75 ± 0.27 | – | –
CC(=O)N(CCCN[C@@H]1CCCCNC(=O)[C@H](Cc2ccc(F)cc2)NC(=O)[C@H]([C@@H](C)O)NC(=O)[C@H](CCCCN)NC(=O)[C@@H](Cc2c[nH]c3ccccc23)NC(=O)[C@H](Cc2ccccc2)NC(=O)[C@H](Cc2ccccc2)NC(=O)[C@H](CCCNC(=N)N)NC1=O)C[C@@H]1C[C@@H]2c3cccc4[nH]cc(c34)C[C@H]2N(C)C1 [Compound 29A, 3-[N-acetyl-(D-6-methyl-8β-ergolinylmethyl)]-aminopropionyl-psi(CH2NH)-cyclo(DLys-Arg-Phe-Phe-DTrp-Lys-Thr-4FPhe)] | 46.8 ± 7.4 | 62.7 ± 14.8 | 82.8 ± 6.7 | 8.2 ± 0.7 | 0.13 | – | –
C[C@@H](O)[C@@H]1NC(=O)[C@H](CCCCN)NC(=O)[C@@H](Cc2c[nH]c3ccccc23)NC(=O)[C@H](Cc2ccccc2)NC(=O)[C@H](Cc2ccccc2)NC(=O)[C@H](CCCNC(=N)N)NC(=O)[C@@H](NC[C@H](Cc2ccc(O)cc2)NC(=O)CSC[C@@H]2C[C@@H]3c4cccc5[nH]cc(c45)C[C@H]3N(C)C2)CCCCNC(=O)[C@H](Cc2ccccc2)NC1=O [Compound 31, Dop1-Tyr-psi(CH2NH)-cyclo(Lys-Arg-Phe-Phe-DTrp-Lys-Thr-Phe)] | 38.6 ± 28.6 | 37.7 ± 4.6 | 94.8 ± 9.7 | 13.3 ± 0.9 | 0.51 ± 0.1 | – | –
C[C@@H](O)[C@@H]1NC(=O)[C@H](CCCCN)NC(=O)[C@@H](Cc2c[nH]c3ccccc23)NC(=O)[C@H](Cc2ccccc2)NC(=O)[C@H](Cc2ccccc2)NC(=O)[C@H](CCCNC(=N)N)NC(=O)[C@H](NC(=O)CSC[C@@H]2C[C@@H]3c4cccc5[nH]cc(c45)C[C@H]3N(C)C2)CCCCNC(=O)[C@H](Cc2ccc(F)cc2)NC1=O [Compound 34, Dop1-cyclo(DLys-Arg-Phe-Phe-DTrp-Lys-Thr-4FPhe)] (X2-[dK]RFF[dW]KT[Phe(4-F)]; lactam 1-C) | 299 | 72.7 | 77.9 | 14.6 ± 5.7 | 4.55 ± 1.15 | – | –
C[C@@H](O)[C@@H]1NC(=O)[C@H](CCCCN)NC(=O)[C@@H](Cc2c[nH]c3ccccc23)NC(=O)[C@H](Cc2ccccc2)NC(=O)[C@H](Cc2ccccc2)NC(=O)[C@H](CCCNC(=N)N)NC(=O)[C@H](N(CCSC[C@@H]2C[C@@H]3c4cccc5[nH]cc(c45)C[C@H]3N(C)C2)CCSC[C@@H]2C[C@@H]3c4cccc5[nH]cc(c45)C[C@H]3N(C)C2)CCCCNC(=O)[C@H](Cc2ccc(F)cc2)NC1=O [Compound 39, bis[Dop1-psi(CH2N)]-cyclo(DLys-Arg-Phe-Phe-DTrp-Lys-Thr-4FPhe)] (RFF[dW]KT[Phe(4-F)]; linker N-C via X1) | 330 ± 59.5 | 114 ± 24.4 | 95.7 ± 2.4 | 25.9 ± 6.9 | 3.72 ± 2.01 | – | –
C[C@@H](O)[C@@H]1NC(=O)[C@H](CCCCN)NC(=O)[C@@H](Cc2c[nH]c3ccccc23)NC(=O)[C@H](Cc2ccccc2)NC(=O)[C@H](Cc2ccccc2)NC(=O)[C@H](CCCNC(=N)N)NC(=O)[C@H](NCCCS(=O)(=O)C[C@@H]2C[C@@H]3c4cccc5[nH]cc(c45)C[C@H]3N(C)C2)CCCCNC(=O)[C@H](Cc2ccc(F)cc2)NC1=O [Compound 48, (D-6-methyl-8β-ergolinylmethyl)-sulfonylpropyl-cyclo(DLys-Arg-Phe-Phe-DTrp-Lys-Thr-4FPhe)] | 19.4 ± 2.8 | 78.3 ± 15.2 | 76.5 ± 2.8 | 23.6 ± 7.9 | 0.25 ± 0.1 | – | –

Reference: EP2914280B1, “SOMATOSTATIN-DOPAMINE CHIMERIC ANALOGS” (IPSEN PHARMA S.A.S., priority 2012, dated 2014)
